Results as given in patent US20230346827A1 (priority 2020, published 2023).

Tested on: rats subjected to sTBI
Experiment: sTBI rats, LMW-DS 1, 5, 15 mg/kg s.c. 30 min post-TBI: HPLC of brain energy metabolites, antioxidants, oxidative/nitrosative stress biomarkers (Example 4)
Type: in vivo, rat
Method: Male Wistar rats (n=160) of 300-350 g body weight were used in this study. They were fed with standard laboratory diet and water ad libitum in a controlled environment.
As the accepted anesthetic mixture, animals received 35 mg/kg b.w. ketamine and 0.25 mg/kg body weight midazolam by intramuscular injection. Diffuse sTBI was induced according to the “weight drop” impact acceleration model set up by Marmarou et al. J. Neurosurg. 1994, 80: 291-300. This model causes diffuse axonal injury and it is able to reproduce the physical and mechanical characteristics of the diffuse TBI in humans.
Severe TBI was induced by dropping a 450 g weight from 2 meters height onto the rat head protected by a helmet (metal disk previously fixed on the skull using dental cement) in order to uniformly distribute the mechanical force to the brain. Rats were placed prone on a bed of specific polyurethane foam inserted in a special container; this foam dissipates the major part of the potential energy (deriving from the mechanical forces) and prevents any rebound of the animal after the impact that could produce spinal damages.
After 2 or 7 days from TBI induction, rats were anesthetized again and then immediately sacrificed. These time points are coincident with the worst biochemical derangement (2 days) or, in the case of a mildly injured brain, with a full metabolic recovery (7 days).
The drug treatment consisted in a subcutaneous injection of 0.5 ml of LMW-DS (ILB®, Tikomed, Viken, Sweden, WO 2016/076780) and administered at 3 different concentrations (1, 5 and 15 mg/kg body weight), according to the schematic protocol described below. Sham-operated animals underwent the same procedure of anesthesia but TBI and were used as the control group.
(§1) Rats subjected to sTBI and receiving a single administration of LMW-DS after 30 minutes post-TBI, with sacrifice at 2 days post-TBI. Animals were divided in the following subgroups: • 1. 12 animals subjected to sTBI and treated with 1 mg/kg b.w. LMW-DS • 2. 12 animals subjected to sTBI and treated with 5 mg/kg b.w. LMW-DS • 3. 12 animals subjected to sTBI and treated with 15 mg/kg b.w. LMW-DS
as §1, with “at 7” for “at 2”
Rats (n = 12) subjected to sTBI and receiving repeated administrations of the maximal dose of LMW-DS (15 mg/kg b.w.) after 30 minutes, 3 days and 5 days post-TBI, with sacrifice at 7 days post-TBI. Four additional rats were used for the histo-morphological studies. Total rats in this group: n=16
To minimize metabolite loss, an in vivo craniectomy was performed in all animals during anesthesia. The rat skull was carefully removed, the brain was exposed, sharply cut along the sagittal fissure and the two hemispheres were separated. The hemispheres dedicated to biochemical analyses were freeze-clamped by aluminum tongues pre-cooled in liquid nitrogen and then immersed in liquid nitrogen. The freeze-clamping procedure was introduced to accelerate freezing of the tissue, thus minimizing potential metabolite loss.
Tissue homogenization for metabolite analyses was effected as described below. After the wet weight (w.w.) determination, the frozen hemispheres were placed into 7 ml of ice-cold, nitrogen-saturated, precipitating solution (1:10 w/v) composed by CH3CN + 10 mM KH2PO4, pH 7.40, (3:1; v:v), and the homogenization was performed using an Ultra-Turrax homogenizer set at 24,000 rpm/min (Janke & Kunkel, Staufen, Germany). […]

[1] = 1 mg/kg, 7 d post-sTBI, adimensional ratio

## sodium salt of dextran sulfate [LMW-DS]
1 mg/kg, 7 d post-sTBI
  UDP-Glc: 63.19 ± 12.84 nmol/g w.w.
  UDP-GlcNac: 85.36 ± 29.53 nmol/g w.w.
  UMP: 103.06 ± 19.96 nmol/g w.w.
  URACIL: 14.78 ± 3.04 nmol/g w.w.
  URIC ACID: 7.13 ± 1.70 nmol/g w.w.
  URIDINE: 110.17 ± 26.11 nmol/g w.w.
  UTP: 179.75 ± 31.48 nmol/g w.w.
  XANTHINE: 12.53 ± 3.54 nmol/g w.w.
  β-PSEUDOURIDINE: 14.00 ± 2.60 nmol/g w.w.
[1]
  ATP/ADP: 6.12 ± 0.78
  NAD+/NADH: 33.91 ± 9.32
5 mg/kg, 2 d post-sTBI
  ADENOSINE: 92.58 ± 22.16 nmol/g w.w.
  ADP: 364.92 ± 31.39 nmol/g w.w.
  ADP-Ribose: 21.65 ± 4.35 nmol/g w.w.
  AMP: 67.03 ± 11.85 nmol/g w.w.
  ASCORBIC ACID: 2626.68 ± 151.17 nmol/g w.w.
  ATP: 1683.87 ± 98.66 nmol/g w.w.
  Acetyl-CoA: 34.85 ± 4.05 nmol/g w.w.
  CDP choline: 5.16 ± 0.77 nmol/g w.w.
  CMP: 28.94 ± 5.91 nmol/g w.w.
  CREATININE: 10.22 ± 1.90 nmol/g w.w.
  CTP: 37.72 ± 7.63 nmol/g w.w.
  CYTIDINE: 7.47 ± 1.35 nmol/g w.w.
  CYTOSINE: 13.65 ± 1.67 nmol/g w.w.
  CoA-SH: 7.46 ± 0.82 nmol/g w.w.
  GDP: 183.27 ± 25.32 nmol/g w.w.
  GDP Glucose: 83.81 ± 37.35 nmol/g w.w.
  GMP: 167.44 ± 8.47 nmol/g w.w.
  GSH: 2067.79 ± 301.54 nmol/g w.w.
  GTP: 180.01 ± 18.99 nmol/g w.w.
  GUANINE: 1.68 ± 0.42 nmol/g w.w.
  GUANOSINE: 30.97 ± 5.15 nmol/g w.w.
  HYPOXANTHINE: 4.18 ± 0.68 nmol/g w.w.
  IMP: 33.19 ± 6.25 nmol/g w.w.
  INOSINE: 114.89 ± 14.98 nmol/g w.w.
  MDA: 32.73 ± 5.33 nmol/g w.w.
  Malonyl-CoA: 35.58 ± 7.54 nmol/g w.w.
  NADH: 10.37 ± 1.19 nmol/g w.w.
  NADPH: 37.48 ± 3.11 nmol/g w.w.
  NADP^+: 11.86 ± 2.71 nmol/g w.w.
  NAD^+: 376.85 ± 64.15 nmol/g w.w.
  NO2: 218.12 ± 26.28 nmol/g w.w.
  NO3: 148.41 ± 32.30 nmol/g w.w.
  UDP: 70.93 ± 7.27 nmol/g w.w.
  UDP-Gal: 116.42 ± 9.72 nmol/g w.w.
  UDP-GalNac: 20.75 ± 3.06 nmol/g w.w.
  UDP-Glc: 28.60 ± 4.23 nmol/g w.w.
  UDP-GlcNac: 140.58 ± 12.80 nmol/g w.w.
  UMP: 97.98 ± 13.53 nmol/g w.w.
  URACIL: 17.83 ± 3.48 nmol/g w.w.
  URIC ACID: 11.22 ± 2.30 nmol/g w.w.
  URIDINE: 117.21 ± 20.64 nmol/g w.w.
  UTP: 142.82 ± 22.43 nmol/g w.w.
  XANTHINE: 6.71 ± 0.70 nmol/g w.w.
  β-PSEUDOURIDINE: 10.41 ± 2.09 nmol/g w.w.
5 mg/kg, 2 d post-sTBI, adimensional ratio
  NAD^+/NADH: 36.61 ± 6.09
5 mg/kg, 7 d post-sTBI
  ADENOSINE: 22.24 ± 16.47 nmol/g w.w.
  ADP: 289.27 ± 38.52 nmol/g w.w.
  ADP-Ribose: 6.76 ± 1.70 nmol/g w.w.
  AMP: 59.50 ± 4.68 nmol/g w.w.
  ASCORBIC ACID: 2195.87 ± 264.45 nmol/g w.w.
  ATP: 1730.92 ± 139.24 nmol/g w.w.
  Acetyl-CoA: 22.87 ± 3.89 nmol/g w.w.
  CDP choline: 10.37 ± 3.33 nmol/g w.w.
  CMP: 55.67 ± 22.97 nmol/g w.w.
  CREATININE: 5.48 ± 0.97 nmol/g w.w.
  CTP: 79.08 ± 14.54 nmol/g w.w.
  CYTIDINE: 26.51 ± 9.33 nmol/g w.w.
  CYTOSINE: 12.67 ± 2.72 nmol/g w.w.
  CoA-SH: 51.86 ± 6.66 nmol/g w.w.
  GDP: 126.82 ± 14.49 nmol/g w.w.
  GDP Glucose: 104.76 ± 12.25 nmol/g w.w.
  GMP: 101.42 ± 48.00 nmol/g w.w.
  GSH: 2412.17 ± 317.97 nmol/g w.w.
  GTP: 453.86 ± 41.27 nmol/g w.w.
  GUANINE: 7.92 ± 3.37 nmol/g w.w.
  GUANOSINE: 33.42± 6.96 nmol/g w.w.
  HYPOXANTHINE: 13.45 ± 3.91 nmol/g w.w.
  IMP: 68.72 ± 17.60 nmol/g w.w.
  INOSINE: 196.61 ± 22.06 nmol/g w.w.
  MDA: 17.78 ± 2.94 nmol/g w.w.
